These results are taken from patent US4767765A, “N-substituted-N-[3-(1,2,4-triazolo-[4,3-b]pyridazin-6-yl )phenyl]alkanamides, carbamates and ureas” (American Cyanamid Company, priority 1987, dated 1988).

The structures appear in SMILES notation.

Assay [1] has as its system Brain-Specific Receptors of Rats. Kind of assay: Inhibition of the binding of 3H-benzodiazepine to brain-specific receptors of rats. On the set-up: species or system rat (Wistar). Particulars: 3H-diazepam 1.5 nM or 3H-flunitrazepam 1.0 nM; rat cortex P2 fraction, pH 7.4, 30 minutes in ice; test concentration not given.
The test system of assay [2] is Nonconditioned Passive Avoidance in Rats. In words: Nonconditioned passive avoidance test in rats (conflict procedure). It is filed as in vivo, rat (Wistar). Also on record: key: Active: considered active if the number of shocks received by the test group is significantly higher than the control group by the Mann-Witney U test. The following applies: oral or i.p., 30 or 60 minutes. On the procedure:
Another test which has been used to assess anti-anxiety effects is a non-conditioned passive avoidance procedure described by J. R. Vogel, B. Beer and D. E. Clody, "A Simple and Reliable Conflict Procedure for Testing Anti-anxiety Agents", Psychopharmacologia, 21, 1-7 (1971). A conflict situation is induced in rats by a modification of this method.
Groups of 6 naive, Wistar strain rats, weighing 200-240 g each were deprived of water for 48 hours and food for 24 hours. The test compounds were administered in single or graded, oral or intraperitoneal doses, suspended in a 2% starch vehicle containing 0.5% v/v polyethylene glycol and one drop of polysorbate 80. Control animals received the vehicle alone. At 30 or 60 minutes each rat was placed in an individual plexiglass chamber. Water was available ad libitum from a tap located in the rear of the chamber. A 0.7 milliampere DC shocking current was established between the stainless steel grid floor and the tap. After 20 licks of non-shocked drinking, a shock was delivered for 2 seconds and then further shocks were delivered on a ratio of one shock for 2 seconds for every 20 licks. This was continued for a total of 3 minutes. The number of shocks taken by each rat during the 3 minute interval was recorded and compared to a control group. […]

The subject of assay [3] is Clonic Seizures Caused by Pentylenetetrazole in Rats. In words: Protection against clonic seizures caused by pentylenetetrazole in rats. Type of assay: in vivo. The following applies: Rattus norvegicus, oral or i.p., pentylenetetrazole 23 mg/kg i.v. at 30 or 60 minutes, read-out: % of Rats Protected. The method, then:
The antianxiety and anticonvulsant properties of the novel compounds of the present invention were established in a test which indicates both anxiolytic and antiepileptic activity by the measure of protection from convulsions resulting from the administration of pentylenetetrazole. Single or graded dose levels of the test compounds were administered orally or intraperitoneally in a 2% starch vehicle, containing 0.5% v/v polyethylene glycol and one drop of Polysorbate 80 to groups of at least 4 rats. At 30 or 60 minutes, the rats were treated intravenously with pentylenetetrazole at a dose of 23 mg/kg of body wieght. This dose is estimated to cause clonic seizures in 99% of unprotected rats. It has been reported [R. T. Hill and D. H. Tedeschi, "Animal Testing and Screening Procedures in Evaluating Psychotropic Drugs" in An Introduction to Psychopharmacology, Eds. R. R. Rech and K. E. Moore, Raven Press, New York, pp 237-288 (1971,] that there is a high degree of correlation between antagonism of pentylenetetrazole seizures in rats and antianxiety and anticonvulsant effects in higher warm-blooded animals. The results of this test on representative compounds of this invention are shown in Table I.

Consider `CC(=O)N(CC1CC1)c1cccc(-c2ccc3nnc(C)n3n2)c1` [N-(Cyclopropylmethyl)-N-[3-(3-methyl-1,2,4-triazolo[4,3-b]pyridazin-6-yl)phenyl]acetamide], for which the % Inhibition (in general, the percentage by which the read-out fell short of the control) in assay [1] worked out at 93%. Also, the “Results (nonconditioned passive avoidance)” value (“Results” below) in assay [2] (dose 6.2 mg/kg) is on record as “Active”. The responders at 12.5 mg/kg in assay [3] was found to be 75%.

As for `C=CCN(C(C)=O)c1cccc(-c2ccc3nncn3n2)c1` [N-2-Propenyl-N-[3-(1,2,4-triazolo[4,3-b]pyridazin-6-yl)phenyl]acetamide], the “% Inhibition” value in assay [1] stood at 68%.

`CCC(=O)N(C)c1cccc(-c2ccc3nnc(C)n3n2)c1` [N-Methyl-N-[3-(3-methyl-1,2,4-triazolo[4,3-b]pyridazin-6-yl)phenyl]propanamide]: the “% Inhibition” value in assay [1] is recorded as 89%. Besides, in assay [2] (dose 3.1 mg/kg), the “Results” value is reported as “Active”. Also, in assay [3], the responders at 12.5 mg/kg was found to be 25%.

On to `CCC(=O)Nc1cccc(-c2ccc3nnc(C)n3n2)c1` [N-[3-(3-Methyl-1,2,4-triazolo[4,3-b]pyridazin-6-yl)phenyl]propanamide], for which the “% Inhibition” value in assay [1] was 56%.

As to `CCN(C(C)=O)c1cccc(-c2ccc3nnc(C)n3n2)c1` [N-Ethyl-N-[3-(3-methyl-1,2,4-triazolo[4,3-b]pyridazin-6-yl)phenyl]acetamide], the “% Inhibition” value in assay [1] stood at 90%. Moreover, in assay [2] (dose 0.8 mg/kg), the “Results” value was “Active”. In assay [3], the responders at 12.5 mg/kg worked out at 100%.

For the compound `CCN(C(=O)OC)c1cccc(-c2ccc3nncn3n2)c1` [Ethyl[3-(1,2,4-triazolo[4,3-b]pyridazin-6-yl)phenyl]carbamic acid, methyl ester], in assay [1], the “% Inhibition” value turned out to be 78%. Further, the “Results” value in assay [2] (dose 25 mg/kg) is “Active”. Besides, the responders at 25 mg/kg in assay [3] came out at 100%.

As to `COC(=O)N(C)c1cccc(-c2ccc3nnc(C)n3n2)c1` [Methyl[3-(3-methyl-1,2,4-triazolo[4,3-b]pyridazin-6-yl)phenyl]carbamic acid, methyl ester], the “% Inhibition” value in assay [1] stood at 62%. In assay [2] (dose 3.1 mg/kg), the “Results” value is reported as “Active”. For the same compound, the responders at 25 mg/kg in assay [3] is 100%.

Consider `CC(=O)N(C)c1cccc(-c2ccc3nnc(N)n3n2)c1` [N-Methyl-N-[3-(3-amino-1,2,4-triazolo[4,3-b]pyridazin-6-yl)phenyl]acetamide], for which the “% Inhibition” value in assay [1] stood at 58%.

`CCN(C(C)=O)c1cccc(-c2ccc3nncn3n2)c1` [N-Ethyl-N-[3-(1,2,4-triazolo[4,3-b]pyridazin-6-yl)phenyl]acetamide]: the “% Inhibition” value in assay [1] is recorded as 78%. Besides, the “Results” value in assay [2] (dose 12.5 mg/kg) is reported as “Active”. In addition, in assay [3], the responders at 25 mg/kg came to 100%.

With `Cc1nnc2ccc(-c3cccc(N(C)C(=O)N(C)C)c3)nn12` [N,N,N'-Trimethyl-N'-[3-(3-methyl-1,2,4-triazolo[4,3-b]pyridazin-6-yl)phenyl]urea], in assay [2] (dose 25 mg/kg), the “Results” value is recorded as “Active”. Besides, the responders at 25 mg/kg in assay [3] was 50%.

As for `CCN(C(=O)OC)c1cccc(-c2ccc3nnc(C)n3n2)c1` [Ethyl[3-(3-methyl-1,2,4-triazolo[4,3-b]pyridazin-6-yl)phenyl]carbamic acid, methyl ester], the “% Inhibition” value in assay [1] is listed as 60%. Besides, the “Results” value in assay [2] (dose 1.5 mg/kg) is on record as “Active”. In addition, the responders at 3.1 mg/kg in assay [3] amounted to 75%.

As for `CCC(=O)N(CC)c1cccc(-c2ccc3nnc(C)n3n2)c1` [N-Ethyl-N-[3-(3-methyl-1,2,4-triazolo[4,3-b]pyridazin-6-yl)phenyl]propanamide], in assay [1], the “% Inhibition” value worked out at 95%. Besides, the “Results” value in assay [2] (dose 3.1 mg/kg) is on record as “Active”. Also, the responders at 3.1 mg/kg in assay [3] turned out to be 75%.

As for `COC(=O)Nc1cccc(-c2ccc3nncn3n2)c1` [[3-(1,2,4-Triazolo[4,3-b]pyridazin-6-yl)phenyl]carbamic acid, methyl ester], the “% Inhibition” value in assay [1] amounted to 18%.

Regarding `CCCN(C(C)=O)c1cccc(-c2ccc3nnc(C)n3n2)c1` [N-[3-(3-Methyl-1,2,4-triazolo[4,3-b]pyridazin-6-yl)phenyl]-N-propylacetamide], the “% Inhibition” value in assay [1] amounted to 93%.

Consider `Cc1nnc2ccc(-c3cccc(NC(=O)N(C)C)c3)nn12` [N,N-Dimethyl-N'-[3-(3-methyl-1,2,4-triazolo[4,3-b]pyridazin-6-yl)phenyl]urea], for which, in assay [1], the “% Inhibition” value was 10%.

For the compound `C#CCN(C(C)=O)c1cccc(-c2ccc3nncn3n2)c1` [N-2-Propynyl-N-[3-(1,2,4-triazolo[4,3-b]pyridazin-6-yl)phenyl]acetamide], in assay [1], the “% Inhibition” value is 49%.

For `CCN(C(C)=O)c1cccc(-c2ccc3nnc(N)n3n2)c1` [N-Ethyl-N-[3-(3-amino-1,2,4-triazolo[4,3-b]pyridazin-6-yl)phenyl]acetamide], the “% Inhibition” value in assay [1] was 90%.

As for `COC(=O)N(C)c1cccc(-c2ccc3nncn3n2)c1` [Methyl-[3-(1,2,4-triazolo[4,3-b]pyridazin 6-yl)phenyl]carbamic acid, methyl ester], the “% Inhibition” value in assay [1] came out at 62%. In addition, the responders at 25 mg/kg in assay [3] stood at 25%.

`CC(=O)N(C)c1cccc(-c2ccc3nncn3n2)c1` [N-Methyl-N-[3-(1,2,4-triazolo[4,3-b]pyridazin-6-yl)phenyl]acetamide]: the “% Inhibition” value in assay [1] was 45%. In assay [2] (dose 12.5 mg/kg), the “Results” value is listed as “Active”. The responders at 25 mg/kg in assay [3] was determined as 50%.

Take `COC(=O)Nc1cccc(-c2ccc3nnc(C)n3n2)c1` [[3-(3-Methyl-1,2,4-triazolo[4,3-b]pyridazin-6-yl)phenyl]carbamic acid, methyl ester]: the “% Inhibition” value in assay [1] was found to be 18%. The “Results” value in assay [2] (dose 25 mg/kg) is “Active”.

Regarding `CC(=O)N(C)c1cccc(-c2ccc3nnc(C)n3n2)c1` [N-Methyl-N-[3-(3-methyl-1,2,4-triazolo[4,3-b]pyridazin-6-yl)phenyl]acetamid], the “% Inhibition” value in assay [1] worked out at 89%. The “Results” value in assay [2] (dose 3.1 mg/kg) is given as “Active”. Moreover, in assay [3] (dose 6.0 mg/kg), the responders at 6 mg/kg was found to be 100%.

For `CCC(=O)N(CC)c1cccc(-c2ccc3nncn3n2)c1` [N-Ethyl-N-[3-(1,2,4-triazolo[4,3-b]pyridazin-6-yl)phenyl]propanamide], the “% Inhibition” value in assay [1] was 84%. In assay [2] (dose 3.1 mg/kg), the “Results” value was “Active”. In assay [3], the responders at 3.1 mg/kg amounted to 50%.

Regarding `C=CCN(C(C)=O)c1cccc(-c2ccc3nnc(C)n3n2)c1` [N-[3-(3-Methyl-1,2,4-triazolo[4,3-b]pyridazin-6-yl)phenyl]-N-2-propenylacetamide], in assay [1], the “% Inhibition” value is reported as 96%. Further, the “Results” value in assay [2] (dose 25 mg/kg) is “Active”. For the same compound, the responders at 6.25 mg/kg in assay [3] (dose 6.25 mg/kg) was determined as 100%.

Consider `CCC(=O)N(C)c1cccc(-c2ccc3nncn3n2)c1` [N-Methyl-N-[3-(1,2,4-triazolo[4,3-b]pyridazin-6-yl)phenyl]propanamide], for which the “% Inhibition” value in assay [1] came to 56%. In addition, in assay [2] (dose 25 mg/kg), the “Results” value is given as “Active”. For the same compound, the responders at 25 mg/kg in assay [3] is 100%.

In the case of `CCN(C(=O)N(C)C)c1cccc(-c2ccc3nnc(C)n3n2)c1` [N-Ethyl-N',N'-dimethyl-N-[(3-methyl-1,2,4-triazolo[4,3-b]pyridazin-6-yl)phenyl]urea], the “Results” value in assay [2] (dose 3.1 mg/kg) is “Active”. In addition, the responders at 12.5 mg/kg in assay [3] stood at 75%.

In the case of `C#CCN(C(C)=O)c1cccc(-c2ccc3nnc(C)n3n2)c1` [N-[3-(3-Methyl-1,2,4-triazolo[4,3b]pyridazin-6-yl)phenyl]-N-2-propynylacetamide], in assay [1], the “% Inhibition” value was 90%. The “Results” value in assay [2] (dose 1.5 mg/kg) is given as “Active”. Moreover, in assay [3], the responders at 3.1 mg/kg came to 100%.
